Measurements reported in PubChem BioAssay (NCI).
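1) Cells in 96-well plates. 2) Compound, 48 h, 5 concentrations. 3) Linear interpolation between surrounding doses. 4) Unreached endpoint = highest concentration. Abbreviation: GI50, concentration required for 50% inhibition of growth. TGI: total growth inhibition.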

Columns and labels:
Experiment in all cases: NCI anticancer screen, dose series, 48 h
[1] = test system: HCC-2998 colon
[2] = test system: SNB-75 CNS
[3] = test system: HCT-15 colon
[4] = test system: MALME-3M melanoma
[5] = test system: DU-145 prostate
[6] = test system: EKVX NSCLC
[7] = test system: SW-620 colon
[8] = test system: MOLT-4 leukemia
[9] = test system: LOX IMVI melanoma
[10] = test system: NCI/ADR-RES ovarian
[11] = test system: T-47D breast
[12] = test system: UO-31 renal
[13] = test system: RXF 393 renal
[14] = test system: MDA-MB-231 breast
[15] = test system: ACHN renal
[16] = test system: SF-539 CNS
[17] = test system: SK-OV-3 ovarian
[18] = test system: MDA-MB-435
[19] = test system: SR leukemia
[20] = test system: HCT-116 colon
[21] = test system: SF-295 CNS
[22] = test system: MCF7 breast
[23] = test system: SK-MEL-5 melanoma
[24] = test system: HL-60(TB) leukemia
[25] = test system: SK-MEL-28 melanoma
[26] = test system: BT-549 breast
[27] = test system: OVCAR-4 ovarian
[28] = test system: KM12 colon
[29] = test system: SNB-19 CNS
[30] = test system: M14 melanoma
[31] = test system: K-562 leukemia
[32] = test system: HOP-62 NSCLC
[33] = test system: UACC-257 melanoma
[34] = test system: COLO 205 colon
[35] = test system: 786-0 renal
[36] = test system: NCI-H522 lung
[37] = test system: UACC-62 melanoma
[38] = test system: SN12C renal
[39] = test system: SF-268 CNS
[40] = test system: HS 578T breast
[41] = test system: NCI-H460 lung
[42] = test system: HT29 colon
[43] = test system: RPMI-8226 leukemia
[44] = test system: NCI-H226 lung
[45] = test system: TK-10 renal
[46] = test system: A549 NSCLC
[47] = test system: CCRF-CEM leukemia
[48] = test system: SK-MEL-2 melanoma
[49] = test system: OVCAR-5 ovarian
[50] = test system: U251 CNS
[51] = test system: IGROV1 ovarian
[52] = test system: PC-3 prostate
[53] = test system: OVCAR-8 ovarian
[54] = test system: OVCAR-3 ovarian
[55] = test system: A498 renal
[56] = test system: HOP-92 NSCLC
[57] = test system: NCI-H23 lung
[58] = test system: CAKI-1 renal

N/C(=N\C(N)=N\c1nc2ccccc2s1)c1ccnc(Br)c1
GI50 [1]: 66 µM | TGI [1]: > 100 µM | GI50 [2]: 2330 nM | TGI [2]: 6.89 µM | GI50 [3]: 3.92 µM | TGI [3]: > 100 µM | GI50 [4]: 6.22 µM | TGI [4]: > 100 µM | GI50 [5]: 15.2 µM | TGI [5]: > 100 µM | GI50 [6]: 30.4 µM | TGI [6]: > 100 µM | GI50 [7]: 3.91 µM | TGI [7]: > 100 µM | GI50 [8]: 4.35 µM | TGI [8]: > 100 µM | GI50 [9]: 4.27 µM | TGI [9]: > 100 µM | GI50 [10]: 2620 nM | TGI [10]: 7.95 µM | GI50 [11]: 8.01 µM | TGI [11]: > 100 µM | GI50 [12]: 3.56 µM | TGI [12]: 84 µM | GI50 [13]: 2810 nM | TGI [13]: 27.1 µM | GI50 [14]: 9.13 µM | TGI [14]: > 100 µM | GI50 [15]: 5.22 µM | TGI [15]: > 100 µM | GI50 [16]: 4.67 µM | TGI [16]: 95 µM | GI50 [17]: 5.95 µM | TGI [17]: > 100 µM | GI50 [18]: 2100 nM | TGI [18]: 7.32 µM | GI50 [19]: 2900 nM | TGI [19]: > 100 µM | GI50 [20]: 3.28 µM | TGI [20]: > 100 µM | GI50 [21]: 4.25 µM | TGI [21]: > 100 µM | GI50 [22]: 5.49 µM | TGI [22]: > 100 µM | GI50 [23]: 3.49 µM | TGI [23]: > 100 µM | GI50 [24]: 3.02 µM | TGI [24]: > 100 µM | GI50 [25]: 8.7 µM | TGI [25]: > 100 µM | GI50 [26]: 4.32 µM | TGI [26]: > 100 µM | GI50 [27]: 7.83 µM | TGI [27]: > 100 µM | GI50 [28]: 5.19 µM | TGI [28]: > 100 µM | GI50 [29]: 7.1 µM | TGI [29]: > 100 µM | GI50 [30]: 3.39 µM | TGI [30]: > 100 µM | GI50 [31]: 3.46 µM | TGI [31]: > 100 µM | GI50 [32]: 3.65 µM | TGI [32]: 57.2 µM | GI50 [33]: > 100 µM | TGI [33]: > 100 µM | GI50 [34]: 11 µM | TGI [34]: > 100 µM | GI50 [35]: 5.88 µM | TGI [35]: > 100 µM | GI50 [36]: 3.22 µM | TGI [36]: > 100 µM | GI50 [37]: 4.47 µM | TGI [37]: > 100 µM | GI50 [38]: 5.57 µM | TGI [38]: > 100 µM | GI50 [39]: 5.88 µM | TGI [39]: > 100 µM | GI50 [40]: 3.76 µM | TGI [40]: 46 µM | GI50 [41]: 4.33 µM | TGI [41]: > 100 µM | GI50 [42]: 3.55 µM | TGI [42]: > 100 µM | GI50 [43]: 4.29 µM | TGI [43]: > 100 µM | GI50 [44]: 15.9 µM | TGI [44]: > 100 µM | GI50 [45]: 52 µM | TGI [45]: > 100 µM | GI50 [46]: 22.1 µM | TGI [46]: > 100 µM | GI50 [47]: 3.7 µM | TGI [47]: > 100 µM | GI50 [48]: 3.81 µM | TGI [48]: > 100 µM | GI50 [49]: 62.3 µM | TGI [49]: > 100 µM | GI50 [50]: 5.63 µM | TGI [50]: 48.9 µM | GI50 [51]: 3.63 µM | TGI [51]: > 100 µM | GI50 [52]: 4.61 µM | TGI [52]: > 100 µM | GI50 [53]: 10.3 µM | TGI [53]: > 100 µM | GI50 [54]: 3.46 µM | TGI [54]: 18.9 µM | GI50 [55]: 5.14 µM | TGI [55]: 41 µM | GI50 [56]: 7.02 µM | TGI [56]: > 100 µM | GI50 [57]: 14.2 µM | TGI [57]: > 100 µM | GI50 [58]: 3.33 µM | TGI [58]: > 100 µM
